# Test results as given in patent US4205076A, “Lipogenesis inhibition by certain esters of substituted benzodioxincarboxylic acids” (Shell Oil Company, priority 1979, dated 1980).
# Test system: swine adipose tissue
# Assay: Inhibition of lipogenesis (incorporation of radioactive carbon from glucose-U-14C into lipid) in swine adipose tissue slices
# Format: cell-based
# Settings: 100 micrograms per milliliter, 37° C., 2 hours, insulin, 5% DMSO, in triplicate
# Excerpt: The manner in which they cause this effect is not known with certainty; it is believed that they interfere with the synthesis of fatty acids in the tissues. Their effectiveness for this purpose has been ascertained by immersing samples of swine adipose tissue in a liquid medium containing radioactive glucose and the test chemical for a period of time, then isolating the lipid from the treated tissue and determining the incorporation of the radioactive carbon into lipid by means of scintillation counting techniques. These tests were conducted in swine adipose tissues because in swine, the primary site of lipogenesis--i.e., fatty acid synthesis--appears to be adipose tissue.
# Described in more detail, tests were conducted according to the following general procedure:
# 150 milligrams of slices of swine adipose tissue were incubated at 37° C. for 2 hours with shaking in 3 milliliters of Krebs-Ringer bicarbonate solution containing one-half the normal calcium ion concentration, 60 micromoles of glucose, 0.5 micro-Curie of glucose-U^14 C, and 300 microunits of insulin, and 5% dimethyl sulfoxide (DMSO). The test compounds were added as a solution or suspension in DMSO and were present at a concentration of 100 micrograms per milliliter of the incubation mixture.
# The incubation was terminated by addition of 0.25 milliliter of 1 N sulfuric acid. The resulting mixture was extracted with a total of 25 milliliters of chloroform/methanol (2:1 v/v). The extracts were washed according to Folch et al. (J. Biol. Chem. 226, 497-509, (1957)), air dried, and counted in a liquid scintillation counter with 15 milliliters of counting fluid (two parts toluene containing 0.4% w/v New England Nuclear Omnifluor/1 part Triton X-100). The tests were conducted in triplicate and were accompanied by control tests in which all ingredients,proportions and conditions were the same except that no test compound was included. From the data obtained were calculated the percent inhibition of lipid synthesis by the test compounds in each case. The data obtained from the tests are set out in Table 1, as the percent inhibition of lipogenesis compared to the results obtained in the control tests wherein only the test compound was omitted.
row,Compound,Percent Inhibition (of lipogenesis compared to control) [%]
1,"Ethyl 7(and 6)-acetyl-2,3-dihydro-1,4-benzodioxin-2-carboxylate [Compound 1]",89
2,"Ethyl 2,3-dihydro-7(and 6)-(1-(hydroxyimino)ethyl)-1,4-benzodioxin-2-carboxylate [Compound 2]",94
3,"CCOC(=O)C1COc2ccc(C(C)=NOC)cc2O1 (stereo not drawn) [Compound 3, Ethyl 2,3-dihydro-7-(1-(methoxyimino)ethyl)-1,4-benzodioxin-2-carboxylate]",52
4,"Ethyl 6(and 7)-(acetylamino)-2,3-dihydro-1,4-benzodioxin-2-carboxylate [Compound 4]",96
5,"CCOC(=O)C1COc2ccc(C(=O)c3ccccc3)cc2O1 (stereo not drawn) [Compound 5, Ethyl 7-benzoyl-2,3-dihydro-1,4-benzodioxin-2-carboxylate]",69
6,"Ethyl 6(and 7)-(2'-methyl-4'-thiazolyl)-2,3-dihydro-1,4-benzodioxin-2-carboxylate [Compound 6]",79
